From US6864251B2, “Treatment of LTB4-mediated inflammatory disorders with optically-pure (R)-2,3-benzodiazepines” (Vela Pharmaceuticals, Inc., priority 2002, dated 2005)
Values joined by “and” are separate entries in the source; they are usually repeats but may differ in a detail not shown here. Equal entries are not always repeated.

Assays:
[1] = tested on: LTB4-induced dermal inflammation; assay: Rabbit model of LTB4-induced dermal inflammation, histopathology of intradermal challenge sites; type: in vivo, New Zealand White Rabbits; design: key to Inflammation score / Edema score: 0=normal; T=trace; 1=minimal; 2=mild; 3=moderate; 4=marked; settings: test article IP 60 mg/kg (dexamethasone 0.5 mg/kg); for Edema score / Inflammation score: 4 hr after challenge; for Histopathology finding: reduction of inflammation and edema: summary in words
Procedure: Test compounds were prepared as follows. The vehicle was first prepared by dissolving […] of hydroxypropylmethylcellulose 2910 (HPMC)(Sigma Chemical, St. Louis, Mo.) in 50 mL of 0.9% saline to yield a concentration of 2% HPMC. The three test articles, (R)-, (S)- and racemic tofisopam, were formulated by adding 1 g of each test article to 10 mL of vehicle.
On Day 0, the rabbits were sedated with ketamine/xylazine (35/5 mg/kg, s.c.) and an area of approximately 8×14 cm on the back was closely and carefully clipped to expose the skin, but not inflame or otherwise damage the epithelium. A grid of ten squares each approximately 2.5×2.5 cm was drawn on each animal's back using an indelible marker. The animals were then dosed intraperitoneally with the appropriate test article corresponding to the group. Thirty minutes after dosing with test or control article, the animals were challenged intradermally with the LTB4 or LTB4-aminopropamide (LTB4-AP, a synthetic LTB4 agonist) in the appropriate site as shown in Table 4. Each injection site was marked with an indelible marker in order to identify the exact location of the intradermal injection site. Sixty minutes after challenge, the animals were treated again with tofisopam or control articles. The animals were sacrificed 4 hrs. after challenge, and the intradermal injection sites were excised, fixed in 10% neutral buffered formalin (NBF), and submitted for histopathology. H&E-stained sections were read by a board-certified veterinary pathologist using light microscopy.
All animals were sacrificed 4 hr after challenge. The intradermal challenge sites were excised, placed on unique cardboard squares, fixed in 10% NBF, and submitted for histopathology. The skin sections included the epidermis and the subcutis, down to the back musculature.
The marked skin sections were fixed for at least 48 hours on small cardboard squares. At gross trimming, three levels were cut through marked skin region in order to assure that the injection sites is brought into the plane of section. The skins were gross trimmed, processed by dehydration, embedded in paraffin, sectioned at 3-5 μm, and stained with hematoxylin and eosin.
The tissues were evaluated histopathologically via light microscopy by a board-certified veterinary pathologist. Initially, the identity of the slides was masked in order to perform the initial evaluation and rank the slides. The slides were then unmasked and there was a careful assessment of the lesions and careful comparison of the tofisopam-treated sites to the vehicle and positive control tissues. The lesions were graded based upon the degree of inflammation and the degree of edema. The severity of the inflammation and edema was keyed as follows: 0=normal; T=trace; 1=minimal; 2=mild; 3=moderate; 4=marked.

[2] = tested on: lymphocyte; settings: in vitro; cited from earlier work
[3] = tested on: IL-2 production; settings: in vitro; cited from earlier work
[4] = tested on: central BZ receptors; settings: cited from earlier work
[5] = biological target: peripheral BZ receptors (Homo sapiens, UniProt P30536); settings: cited from earlier work
Sequence of peripheral BZ receptors (P30536 whole entry): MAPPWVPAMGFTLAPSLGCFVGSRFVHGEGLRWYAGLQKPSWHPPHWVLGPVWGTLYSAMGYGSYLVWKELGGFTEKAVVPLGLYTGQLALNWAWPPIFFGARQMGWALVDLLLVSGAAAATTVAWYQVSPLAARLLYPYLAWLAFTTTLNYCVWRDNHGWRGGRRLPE

[6] = injection site: LTB4 2000 ng, listed as (R,S)-tofisopam
[7] = injection site: LTB-ap 2000 ng, listed as (R,S)-tofisopam

Structure (SMILES) | Edema score ([1]; injection site: LTB4 500 ng) | Inflammation score ([1]; injection site: LTB4 500 ng) | Edema score ([1]; injection site: LTB4 1000 ng) | Edema score ([1]; injection site: LTB4 2000 ng) | Edema score ([1]; injection site: LTB-ap 500 ng) | Edema score ([1]; injection site: LTB-ap 1000 ng) | Edema score ([1]; injection site: LTB-ap 2000 ng) | Edema score ([1]; injection site: Vehicle 0 ng) | Inflammation score ([1]; injection site: Vehicle 0 ng) | Histopathology finding: reduction of inflammation and edema [1] | Inflammation score ([1]; injection site: LTB-ap 500 ng) | Inflammation score ([1]; injection site: LTB-ap 1000 ng) | also measured
CC[C@@H]1C(C)=NN=C(c2ccc(OC)c(OC)c2)c2cc(OC)c(OC)cc21 [(S)-tofisopam, (S)-1-(3,4-dimethoxyphenyl)-4-methyl-5-ethyl-7,8-dimethoxy-5H-2,3-benzodiazepine] | 2 | 1 and 2 | 3 and 4 | 2 and 4 | 2 and 3 | 3 and 4 | 2 and 1 and 4 | T and 1 | T and 1 | no meaningful reduction in the inflammation and edema |  |  | 
CC[C@H]1C(C)=NN=C(c2ccc(OC)c(OC)c2)c2cc(OC)c(OC)cc21 [(R)-tofisopam, (R)-1-(3,4-dimethoxyphenyl)-4-methyl-5-ethyl-7,8-dimethoxy-5H-2,3-benzodiazepine] | 1 and 3 | 1 | 2 and 3 | 2 and 3 | 1 and 3 | 2 and 3 | 2 and 3 and 1 | 0 and 1 and 2 | 0 and 1 | meaningful reduction in the severity of the inflammatory cell infiltration and less edema | 1 | 1 and 2 | Inflammation score ([1]; injection site: LTB4 1000 ng): 1 and 2; Inflammation score ([1]; injection site: LTB4 2000 ng): 1-2 and 1; Inflammation score ([1]; injection site: LTB-ap 2000 ng): 1 and 2
CCC1C(C)=NN=C(c2ccc(OC)c(OC)c2)c2cc(OC)c(OC)cc21 (racemic) [Racemic tofisopam, Racemic-1-(3,4-dimethoxyphenyl)-4-methyl-5-ethyl-7,8-dimethoxy-5H-2,3-benzodiazepine] |  | 2 | 3 |  |  | 3 |  |  | 1 | no meaningful reduction in the inflammation and edema | 2 | 3 | Mitogen-induced lymphocyte proliferation [2]: enhances; Edema score ([1]; injection site: LTB4 500 ng, listed as (R,S)-tofisopam): 2 and 3; Inflammation score ([1]; injection site: LTB4 1000 ng, listed as (R,S)-tofisopam): 3 and 2; Edema score [1, 6]: 2 and 1 and 3; Inflammation score [1, 6]: 2 and 1 and 3; Edema score ([1]; injection site: LTB-ap 500 ng, listed as (R,S)-tofisopam): 2 and 3; Edema score [1, 7]: 2 and 1 and 3; Inflammation score [1, 7]: 2 and 1; Edema score ([1]; injection site: Vehicle 0 ng, listed as (R,S)-tofisopam): 2 and 1; IL-2 production [3]: enhances; Interaction with central BZ receptors [4]: does not interact; Binding to peripheral BZ receptors [5]: binds only weakly
